The ASAP Discovery antiviral challenge data (2025)

How the values were obtained:
MERS-CoV Mpro = MERS-CoV Mpro (UniProt K9N7C7)
SARS-CoV-2 Mpro = SARS-CoV-2 Mpro (UniProt P0DTD1)

O=C(NCc1cccs1)[C@@H]1CN(C(=O)c2cccnc2)CCN1c1ccc(Cl)c(Cl)c1
IC50 (MERS-CoV Mpro): 57.5 µM
IC50 (SARS-CoV-2 Mpro): 0.123 µM
